Data: patent US20230227484A1, “PYRIMIDINE COMPOUND AS AXL INHIBITOR” (NANJING CHIA TAI TIANQING PHARMACEUTICAL CO., LTD., priority 2020, published 2023)

molecular target: T1, AXL kinase (Homo sapiens, UniProt P30530); assay: Inhibitory activity of compound against AXL kinase (HTRF KinEASE); format: biochemical; settings: AXL enzyme (Carna, 08-107), ATP 15 μM; "<" means below detection limit of the test
T1 construct: purchased Carna 08-107
T1 sequence (P30530 473-894 limits assumed): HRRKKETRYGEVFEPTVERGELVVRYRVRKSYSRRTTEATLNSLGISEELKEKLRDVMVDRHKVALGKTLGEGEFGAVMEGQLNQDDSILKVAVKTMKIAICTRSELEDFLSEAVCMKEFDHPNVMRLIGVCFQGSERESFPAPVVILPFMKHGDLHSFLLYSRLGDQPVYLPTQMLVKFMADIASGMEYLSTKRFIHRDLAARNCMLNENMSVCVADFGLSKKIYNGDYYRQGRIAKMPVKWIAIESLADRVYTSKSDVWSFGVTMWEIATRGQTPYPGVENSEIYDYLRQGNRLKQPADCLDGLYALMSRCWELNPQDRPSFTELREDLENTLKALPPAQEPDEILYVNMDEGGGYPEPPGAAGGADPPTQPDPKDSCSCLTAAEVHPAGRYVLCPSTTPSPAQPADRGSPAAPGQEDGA
Method: a) AXL enzyme (Carna, 08-107) configuration and addition: a 1×enzyme buffer (200 μL of Enzymatic buffer kinase 5×, 10 μL of 500 mM MgCl2, 10 μL of 100 mM DTT and 6.26 μL of 2500 nM SEB are added with […] of H2O, and prepared into 1 ml of 1× enzyme buffer) is used. AXL enzyme is diluted from 33.33 ng/uL to 0.027 ng/μL (1.67×, final conc.=0.016 ng/uL), a BioTek (MultiFlo FX) automatic liquid dispenser is used, and 6 μL of enzyme solution having a 1.67-fold final concentration is added respectively to compound wells and positive control wells; and 6 μL of 1×Enzymatic buffer is added to negative control wells.
b) Compound preparation and addition: the compounds and positive drugs prepared in the examples are diluted from 10 mM to 100 μM by DMSO, and titrated with a compound titrator (Tecan, D300e). The titrated solution is automatically sprayed by the titrator to each well to reach a required concentration, wherein the first concentration is 1 μM, and after ½ log dilution, a total of 8 concentrations are obtained. The resulting mixture is centrifuged at 2500 rpm for 30 s and incubated at room temperature for 15 min.
c) Preparation and addition of ATP and substrate: ATP (Sigma, A7699) is diluted with 1× enzyme buffer from 10 mM to 75 μM (5×), and the final concentration is 15 μM; the substrate TK Substrate 3-biotin (Cisbio, 61TK0BLC) is diluted with 1× enzyme buffer from 500 μM to 5 μM (5×), andthe final concentration is […]; ATP and the substrate are mixed in equal volume to obtain a mixed solution; the mixed solution is added to each well at 4 μL by using a BioTek automatic dispenser; centrifuged at 2500 rpm for 30 s, and reacted at 25° C. for 45 min.
d) Pirparation and addition of detection reagent: Streptavidin-XL665 (Cisbio, 610SAXLG) is diluted with HTRF KinEASE detection buffer (cisbio) from 16.67 μM to 250 nM (4×), and the final concentration is 62.5 nM; TK Antibody-Cryptate (Cisbio) is diluted with HTRF KinEASE detection buffer (cisbio) from 100× to 5×, and the final concentration is 1×; XL665 and Antibody are mixed in equal volume; the mixed solution is added to each well at 10 μL by using the BioTek automatic dispenser, centrifuged at 2500 rpm for 30 s, and reacted at 25° C. for 1 h. After the reaction is completed, the resulting product is detected by a multi-function plate reader HTR1p
GraphPad Prism 5 software log (inhibitor) vs. response-Variable slope is used to fit a dose-response curve to obtain the IC50 value of the compound to the inhibition of AXL kinase.
The calculation formula of the inhibition rate is as follows: […]

Compound	IC50 [nM]
Cc1cccc(Nc2nc(Nc3ccc4c(c3)CC[C@@H](N3CCCC3)CC4)ncc2Cl)c1P(C)(C)=O [Example 113, (S)-(2-((5-chloro-2-((7-(pyrrolidin-1-yl)-6,7,8,9-tetrahydro-5H-benzo[7]annulen-2-yl)amino)pyrimidin-4-yl)amino)-6-methylphenyl) dimethyl phosphine oxide]	1.28
CNC(=O)c1cnc(OC)cc1Nc1nc(Nc2ccc3c(c2)CC[C@@H](N2CCCC2)CC3)ncc1Cl [Example 43, (S)-4-((5-chloro-2-((7-(pyrrolidin-1-yl)-6,7,8,9-tetrahydro-5H-benzo[7]annulen-2-yl)amino)pyrimidin-4-yl)amino)-6-methoxyl-N-methylnicotinamide]	9.87
CN(C)C(=O)c1occc1Nc1nc(Nc2ccc3c(c2)CC[C@@H](N2CCCC2)CC3)ncc1Cl [Example 7, (S)-3-((5-chloro-2-((7-(pyrrolidin-1-yl)-6,7,8,9-tetrahydro-5H-benzo[7]annulen-2-yl)amino)pyrimidin-4-yl)amino)-N,N-dimethylfuran-2-carboxamide]	7.74
CC(C)Oc1ccc(Nc2nc(Nc3ccc4c(c3)CC[C@@H](N3CCCC3)CC4)ncc2Cl)c(P(C)(C)=O)c1 [Example 114]	2.03
COCc1ccc(Nc2nc(Nc3ccc4c(c3)CCC(N3CC5CC3C5)CC4)ncc2Cl)c(P(C)(C)=O)c1 (single isomer, unassigned) [Example 116 Isomer 116-2, (2-((2-((7-(2-azabicyclo[2.1.1]hexan-2-yl)-6,7,8,9-tetrahydro-5H-benzo[7]annulen-2-yl)amino)-5-chloropyrimidin-4-yl)amino)-5-(methoxymethyl)phenyl)dimethyl phosphine oxide]	96.8
CP(C)(=O)c1cc(C2CC2)ccc1Nc1nc(Nc2ccc3c(c2)CC[C@@H](N2CCCC2)CC3)ncc1Cl [Example 112, (S)-(2-((5-chloro-2-((7-(pyrrolidin-1-yl)-6,7,8,9-tetrahydro-5H-benzo[7]annulen-2-yl)amino)pyrimidin-4-yl)amino)-5-cyclopropylphenyl)dimethyl phosphine oxide]	2.41
CNC(=O)c1cc(P(C)(C)=O)ccc1Nc1nc(Nc2ccc3c(c2)CC[C@@H](N2CCCC2)CC3)ncc1Cl [Example 79, (S)-2-((5-chloro-2-((7-(pyrrolidin-1-yl)-6,7,8,9-tetrahydro-5H-benzo[7]annulen-2-yl)amino)pyrimidin-4-yl)amino)-5-(dimethylphosphoryl)-N-methylbenzamide]	1.05
COc1ccc(Nc2nc(Nc3ccc4c(c3)CC[C@@H](N3CCCC3)CC4)ncc2Cl)c(P(C)(C)=O)c1 [Example 55, (S)-(2-((5-chloro-2-((7-(pyrrolidin-1-yl)-6,7,8,9-tetrahydro-5H-benzo[7]annulen-2-yl)amino)pyrimidin-4-yl)amino)-5-methoxyphenyl)dimethyl phosphine oxide]	3.14
COc1cc(P(C)(C)=O)c(Nc2nc(Nc3ccc4c(c3)CC[C@@H](N3CCCC3)CC4)ncc2Cl)cc1C#N [Example 136, (S)-(2-((5-chloro-2-((7-(pyrrolidin-1-yl)-6,7,8,9-tetrahydro-5H-benzo[7]annulen-2-yl)amino)pyrimidin-4-yl)amino)-4-cyano-5-methoxyphenyl)dimethyl phosphine oxide]	13.1

Second part, the compound after the results:

IC50 [nM]	Compound
< 0.11	O=S(=O)(c1ccccc1Nc1nc(Nc2ccc3c(c2)CC[C@@H](N2CCCC2)CC3)ncc1Cl)N1CCCC1 [Example 4, (S)-5-chloro-N^2-(7-(pyrrolidin-1-yl)-6,7,8,9-tetrahydro-5H-benzo[7]annulen-2-yl)-N^4-(2-(pyrrolidin-1-ylsulfo)phenyl)pyrimidine-2,4-diamine]
9.68	Cc1cc(Nc2nc(Nc3ccc4c(c3)CC[C@@H](N3CCCC3)CC4)ncc2Cl)c(P(C)(C)=O)cc1F [Example 129, (S)-(2-((5-chloro-2-((7-(pyrrolidin-1-yl)-6,7,8,9-tetrahydro-5H-benzo[7]annulen-2-yl)amino)pyrimidin-4-yl)amino)-5-fluoro-4-methylphenyl)dimethyl phosphine oxide]
207	COc1cc(Nc2nc(Nc3ccc4c(c3)CC[C@@H](N3CCCC3)CC4)ncc2Cl)c(P(C)(C)=O)cc1F [Example 131, (S)-(2-((5-chloro-2-((7-(pyrrolidin-1-yl)-6,7,8,9-tetrahydro-5H-benzo[7]annulen-2-yl)amino)pyrimidin-4-yl)amino)-5-fluoro-4-methoxylphenyl)dimethyl phosphine oxide]
20.7	O=S(=O)(c1cccc(Nc2nc(Nc3ccc4c(c3)CC[C@@H](N3CCCC3)CC4)ncc2Cl)c1)N1CCCC1 [Example 5, (S)-5-chloro-N^2-(7-(pyrrolidin-1-yl)-6,7,8,9-tetrahydro-5H-benzo[7]annulen-2-yl)-N^4-(3-(pyrrolidin-1-ylsulfo)phenyl)pyrimidine-2,4-diamine]
14.6	CNC(=O)c1c(Nc2nc(Nc3ccc4c(c3)CC[C@@H](N3CCCC3)CC4)ncc2Cl)cc[nH]c1=O [Example 42, (S)-4-((5-chloro-2-((7-(pyrrolidin-1-yl)-6,7,8,9-tetrahydro-5H-benzo[7]annulen-2-yl)amino)pyrimidin-4-yl)amino)-N-methyl-2-oxo-1,2-dihydropyridine-3-carboxamide]
19	COC(=O)c1ccncc1Nc1nc(Nc2ccc3c(c2)CC[C@@H](N2CCCC2)CC3)ncc1Cl [Example 27]
1.7	CP(C)(=O)c1cc(Br)ccc1Nc1nc(Nc2ccc3c(c2)CC[C@@H](N2CCCC2)CC3)ncc1Cl [Example 110, (S)-(5-bromo 2-((5-chloro-2-((7-(pyrrolidin-1-yl)-6,7,8,9-tetrahydro-5H-benzo[7]annulen-2-yl)amino)pyrimidin-4-yl)amino)phenyl)dimethyl phosphine oxide]
0.42	CNC(=O)c1c(Nc2nc(Nc3ccc4c(c3)CC[C@@H](N3CCCC3)CC4)ncc2Cl)ccc2nccnc12 [Example 48, (S)-6-((5-chloro-2-((7-(pyrrolidin-1-yl)-6,7,8,9-tetrahydro-5H-benzo[7]annulen-2-yl)amino)pyrimidin-4-yl)amino)-N-methylquinoxaline-5-carboxamide]
1.78	Cc1cc(Cl)cc(Nc2nc(Nc3ccc4c(c3)CC[C@@H](N3CCCC3)CC4)ncc2Cl)c1P(C)(C)=O [Example 117, (S)-(4-chloro-2-((5-chloro-2-((7-(pyrrolidin-1-yl)-6,7,8,9-tetrahydro-5H-benzoannulen-2-yl)amino)pyrimidin-4-yl)amino)-6-methylphenyl)dimethyl phosphine oxide]
1.21	CNC(=O)c1cc(C(F)(F)F)ccc1Nc1nc(Nc2ccc3c(c2)CC[C@@H](N2CCCC2)CC3)ncc1Cl [Example 35, (S)-2-((5-chloro-2-((7-(pyrrolidin-1-yl)-6,7,8,9-tetrahydro-5H-benzo[7]annulen-2-yl)amino)pyrimidin-4-yl)amino)-N-methyl-5-(trifluoromethyl)benzamide]
8.28	CC(C)Oc1ccccc1Nc1nc(Nc2ccc3c(c2)CC[C@@H](N2CCCC2)CC3)ncc1Cl [Example 8, (S)-5-chloro-4-(2-isopropoxyl)anilino-2-(7-(pyrrolidin-1-yl)-6,7,8,9-tetrahydro-5H-benzo[7]annulen-2-yl)pyrimidine]
1.81	[2H]c1ccc(Nc2nc(Nc3ccc4c(c3)CC[C@@H](N3CCCC3)CC4)ncc2Cl)c(P(C)(C)=O)c1 [Example 111, (S)-(2-((5-chloro-2-((7-(pyrrolidin-1-yl)-6,7,8,9-tetrahydro-5H-benzo[7]annulen-2-yl)amino)pyrimidin-4-yl)amino)phenyl-5-d)dimethyl phosphine oxide]
